This data set concerns male Wistar rats. The data set can be described thus: Elevated plus-maze in rats. In kind it is in vivo, rat. The following applies: for Open Entries / Closed Entries / Total Distance Travelled (m) / Total Entries / % Open Time / % Open Entries / Time in open arms / Time in closed arms: rats, mean; for Open Entries: SOLVENT mean 2.57; for Closed Entries: SOLVENT mean 7.14; for Total Distance Travelled (m): SOLVENT mean 9.30; for Total Entries: SOLVENT mean 9.71; for % Open Time: SOLVENT mean 20.43; for % Open Entries: SOLVENT mean 25.57; for Time in open arms: SOLVENT mean 50.29; for Time in closed arms: SOLVENT mean 196.29. As to the method:
Except where noted, the methods used were those of Miroslav M., et al., (2004) Pharmacology, Biochemistry and Behavior 79: 279-290. Experiments were carried out on male Wistar rats (Military Farm, Belgrade, Serbia and Montenegro), weighing 200-240 g. All procedures in the study conformed to EEC Directive 86/609 and were approved by the Ethical Committee on Animal Experimentation of the Medical Faculty in Belgrade. The rats were housed in transparent plastic cages, six animals per cage, and had free access to pelleted food and tap water before and after drug administration. The temperature of the animal room was 22±1° C., the relative humidity 40-70%, the illumination 120 1× and the 12/12-h light/dark period (light on at 06:00 h). All handling and testing took place during the light portion of the cycle. Throughout the study the animals were used only once.
Midazolam and flumazenil were generously donated from F. Hoffman-La Roche (Basel, Switzerland). Zolpidem was purchased from Toronto Research Chemicals (North York, Canada) and DMCM from Research Biochemicals (Natick, Mass., USA). All drugs were dissolved/suspended with the aid of sonication in a solvent containing 85% distilled water, 14% propylene glycol and 1% Tween 80™, and were administered intraperitoneally, in a volume of 1 ml/kg, 20 min before testing. Doses are expressed as the base forms of the drugs. In the cases of combined treatment, agonists were administered at separate sites, immediately after the antagonist. Each animal received a total volume of 2 ml/kg of compounds tested or appropriate vehicles, at two different injection sites.
The test apparatus was constructed of sheet metal, with a black rubber floor. It consisted of a maze elevated to a height of 50 cm with two open (50×10 cm) and two enclosed arms (50×10×40 cm), connected by junction area (central platform) measured 10×10 cm. Although the floor was rubberized, a ledge of sheet metal (0.3 cm high) surrounding the open arms was added, to avoid rats falling off. The illumination in the experimental room consisted of one red neon tube fixed on the ceiling, giving light intensity of 10 1× on the surface of the arms. The experiments were carried out during the diurnal phase (between 08:00 and 12:00 h). At the beginning of the experiment, rats were placed in the centre of the maze, facing one of the enclosed arms and observed for 5 min. The observer sat in the same room 1 m from the maze. After each trial, the maze was cleaned with dry and wet towels. Throughout the study, the number of rats per treatment group was 8-14. Each experiment was run over 4 consecutive days, with three control rats per day; as there was no difference in plus-maze activity among control subgroups, they were pooled in a single control group (n=12).
All numerical data presented in the figures were given as the mean±S.E.M. Each dose-response curve (agonist or antagonist alone or agonist+antagonist) was assessed by a one-way ANOVA. If the ANOVA was significant, each treatment condition was compared with the appropriate solvent control by a Dunnett's test (a=0.05). In case of significant effect in the number of enclosed arm entries, an analysis of covariance (ANCOVA) was performed in the anxiety-related parameters using the number of enclosed arm entries as covariate. Interactions between the agonists and antagonists were analyzed separately with a two-way ANOVA [factors: agonist dose versus cotreatment (an antagonist or saline)]; pairwise comparisons for the assessment of the antagonist influence on the agonist effects were conducted by Tukey's test, one of the methods recommended even in the absence of an overall significant F-test (Wilcox R R. New designs in analysis of variance. Annu Rev Psychol 1987; 38: 29-60). Statistical analyses were performed with commercial statistical software for PC, Stat for Windows R. 5.0.

Where [1] appears, read: SH-053-S 20 mg/kg ip, N 6, t test p = 0.668.
Setting [2] is: SH-053-S 30 mg/kg ip, N 7, t test p ≦ 0.05.

As to `C#Cc1ccc2c(c1)C(c1ccccc1)=NC(C)c1c(C(=O)OCC)ncn1-2` (stereo not drawn) [SH-053-S—CH3, 8-Ethynyl-4-methyl-6-phenyl-4H-2,5,10b-triaza-benzo[e]azulene-3-carboxylic acid ethyl ester], the “Open Entries” value is, setting by setting: under setting [1], 3.00; under setting [2], 4.57. The “Closed Entries” value (SH-053-S 20 mg/kg ip, N 6, t test p = 0.059) is given as 5.33 and the “Closed Entries” value (SH-053-S 30 mg/kg ip, N 7, t test p = 0.481) turned out to be 6.29. In addition, the “Total Distance Travelled (m)” value is listed as 7.49 m (SH-053-S 20 mg/kg ip, N 6, t test p = 0.145) and 9.48 m (SH-053-S 30 mg/kg ip, N 7, t test p = 0.910). Also, the “Total Entries” value reads like this: (SH-053-S 20 mg/kg ip, N 6, t test p = 0.349) 8.33; (SH-053-S 30 mg/kg ip, N 7, t test p = 0.525) 10.86. Further, the “% Open Time” value by setting is: (SH-053-S 20 mg/kg ip, N 6, t test p = 0.426) 27.50%; under setting [2], 36.00%. Also, the “% Open Entries” value by setting is: (SH-053-S 20 mg/kg ip, N 6, t test p = 0.265) 34.17%; under setting [2], 43.71%. The “Time in open arms” value is reported as 61.83 under setting [1] and 93.71 under setting [2]. For the same molecule, the “Time in closed arms” value (SH-053-S 20 mg/kg ip, N 6, t test p ≦ 0.05) was determined as 144.67 and the “Time in closed arms” value (SH-053-S 30 mg/kg ip, N 7, t test p = 0.116) stood at 164.71. The “effects on locomotor activity (summary of FIG. 1, FIG. 2, Tables 3-6)” value (at the dose tested) was “no measurable effects on locomotor activity”. Moreover, the “anxiolytic activity (summary of FIG. 1, FIG. 2, Tables 3-6)” value (rat, in vivo) was “has anxiolytic activity”.
